Experimental data as given in patent US20020035738A1, “Plant protection method” (priority 1996, published 2002).

Assays:
[1] = test system: pPDF1.2-GUS-tNOS reporter gene; assay: β-glucuronidase activity in four-week-old pPDF1.2-GUS-tNOS Arabidopsis plants upon chemical treatment; type: in vivo
[2] = test system: pBg12-GUS-tNOS (β-1.3-glucanase PR-2 type gene promoter); assay: β-glucuronidase activity in pBg12-GUS-tNOS Arabidopsis plants upon chemical treatment; type: in vivo
Botrvtis cinerea = settings: cited from earlier work
Alterniaria alternata = settings: cited from earlier work
[3] = test system: plant defensin gene expression (PDF1.2); assay: Induction of plant defensins in Arabidopsis leaves upon chemical treatments (RNA gel blot, ELISA); type: in vivo
[4] = test system: pPDF1.2-GUS-tNOS transgene; assay: β-glucuronidase activity in seedlings of pPDF1.2-GUS-tNOS Arabidopsis lines germinated on jasmonic acid; type: in vivo, Arabidopsis thaliana ecotype C24; settings: 10 μM jasmonic acid
Text: The β-glucuronidase activity was normalized to the total protein content in each sample, as determined by the method of Bradford (1976) using bovine serum albumin as a […].

[5] = test system: pPDF1.2-GUS-tNOS reporter gene; assay: β-glucuronidase activity in pPDF1.2-GUS-tNOS tobacco plants upon chemical treatment; type: in vivo, tobacco (cv. Xanthi-nc); settings: 8-week-old tobacco, treated leaves 48 h after treatment; SA S mM, MeJA 50 μM, paraquat 25 μgM
tobacco PR-1 gene = assay: RNA gel blot analysis of tobacco PR-1 gene activation; type: in vivo; settings: tobacco plants treated in the same way; not shown
A. brassicicola = type: cell-based, Alternaria brassicicola; settings: FIG. 3D
[6] = treated leaves, 48 hours, JA 500 μM, MeJA 50 μM, SA 5 mM, INA 1 mg/ml, BTH 300 μM, paraquat 25 μM, ethylene 25 ppm
[7] = treated leaves, 48 h, JA 500 μM, MeJA 50 μM, SA 5 mM, INA 1 mg/ml, BTH 300 μM, paraquat 25 μM, ethylene 25 ppm
[8] = […], SA 5 mM, INA 1 mg/mL, paraquat 25 μM, rose bengal 20 mM, methyl jasmonate 45 μM in 0.1% ethanol, ethylene 20 ppm

CSC(=O)c1cccc2nnsc12 [BTH, 1,2,3-benzothiadiazole-7-carbothioic acid S-methylester]
induction of the pPDF1.2-GUS-tNOS reporter gene (β-glucuronidase activity) [1, 6]: without effect
β-glucuronidase activity in pBg12-GUS-tNOS plants [2, 7]: markedly increased
protection of tobacco plants against infection by Botrytis cinerea (Botrvtis cinerea): failed to protect
protection of tobacco plants against infection by Alternaria alternata (Alterniaria alternata): failed to protect

O=C(O)c1cc(Cl)nc(Cl)c1 [INA, 2,6-dichloroisonicotinic acid]
plant defensin gene expression (RNA blot analysis, ELISA) [3, 8]: no induction
induction of the pPDF1.2-GUS-tNOS reporter gene (β-glucuronidase activity) [1, 6]: without effect
β-glucuronidase activity in pBg12-GUS-tNOS plants [2, 7]: markedly increased

C=C [ethylene]
PDF1.2 accumulation ([3]; in vivo): no induced PDF1.2 accumulation
plant defensin gene expression (RNA blot analysis, ELISA) ([3]; in vivo): significantly increased
induction of the pPDF1.2-GUS-tNOS reporter gene (β-glucuronidase activity) ([1]; in vivo): without effect
β-glucuronidase activity, single and combined treatments (synergy) ([1]; in vivo): did not cause increased
β-glucuronidase activity in pBg12-GUS-tNOS plants ([2]; in vivo): neither JA, MeJA, ethylene nor paraquat had any effect

CC/C=C\C[C@H]1C(=O)CC[C@@H]1CC(=O)O [jasmonic acid]
increase of β-glucuronidase activity in jasmonate treated versus untreated seedlings ([4]; all six lines tested): 9 to 25 fold
β-glucuronidase activity, JA-treated ([4]; transgenic line 3, 10-day-old seedlings): 2895 pmoles 4-methylumbelliferone r
β-glucuronidase activity, JA-treated ([4]; transgenic line 4, 10-day-old seedlings): 978 pmoles 4-methylumbelliferone r
β-glucuronidase activity, JA-treated ([4]; transgenic line 5, 10-day-old seedlings): 2676 pmoles 4-methylumbelliferone r
β-glucuronidase activity, JA-treated ([4]; transgenic line 6, 10-day-old seedlings): 2166 pmoles 4-methylumbelliferone r
β-glucuronidase activity, JA-treated ([4]; transgenic line 7, 10-day-old seedlings): 203 pmoles 4-methylumbelliferone r
β-glucuronidase activity, JA-treated ([4]; transgenic line 19, 10-day-old seedlings): 202 pmoles 4-methylumbelliferone r
induction of the pPDF1.2-GUS-tNOS reporter gene (β-glucuronidase activity) [1, 6]: induced
β-glucuronidase activity in pBg12-GUS-tNOS plants [2, 7]: neither JA, MeJA, ethylene nor paraquat had any effect

CC/C=C\CC1C(=O)CCC1CC(=O)OC (stereo not drawn) [methyl jasmonate]
plant defensin gene expression (RNA blot analysis, ELISA) [3, 8]: significantly increased
PDF1.2 accumulation ([3]; sterile plants grown on an agar medium, ethylene alone 25 ppm, results not shown): still induced PDF1.2 accumulation
β-glucuronidase activity, single and combined treatments (synergy) ([1]; methyl jasmonate 0.5 μM, ethylene 25 ppm, ethephon 333 μM, FIG. 19): did not cause increased
induction of the pPDF1.2-GUS-tNOS reporter gene (β-glucuronidase activity) [1, 6]: induced
β-glucuronidase activity in pBg12-GUS-tNOS plants [2, 7]: neither JA, MeJA, ethylene nor paraquat had any effect

C[n+]1ccc(-c2cc[n+](C)cc2)cc1 [paraquat]
plant defensin gene expression (RNA blot analysis, ELISA) [3, 8]: strongly induced
induction of the pPDF1.2-GUS-tNOS reporter gene (β-glucuronidase activity) [1, 6]: induced
β-glucuronidase activity in pBg12-GUS-tNOS plants [2, 7]: neither JA, MeJA, ethylene nor paraquat had any effect

O=C([O-])c1c(Cl)c(Cl)c(Cl)c(Cl)c1-c1c2cc(I)c(=O)c(I)c-2oc2c(I)c([O-])c(I)cc12.[Na+].[Na+] [rose bengal]
plant defensin gene expression (RNA blot analysis, ELISA) [3, 8]: strongly induced

O=C(O)c1ccccc1O [salicylic acid]
plant defensin gene expression (RNA blot analysis, ELISA) [3, 8]: no induction
induction of the pPDF1.2-GUS-tNOS reporter gene (β-glucuronidase activity) [1, 6]: without effect
β-glucuronidase activity in pBg12-GUS-tNOS plants [2, 7]: markedly increased
increase in β-glucuronidase activity [5]: 2 fold
activation of the tobacco PR-1 gene (RNA gel blot) (tobacco PR-1 gene): induced only by salicylic acid

Rs-AFP1: a known radish plant defensin (QKLCERPSGTWSGVCGNNNACKNQCINLEKARHGSCNYVFPAHKCICYFPC; UniProt P69241 30-80, looked up)
character of the growth inhibition (hyphal morphology) (A. brassicicola): hyphal hyperbranching and tip swelling
